{"source": "paper PMC11345841", "about": "“Exploring 2-Sulfonylpyrimidine Warheads as Acrylamide Surrogates for Targeted Covalent Inhibition: A BTK Story” (Journal of Medicinal Chemistry, 2024)", "key": {"EPHA6": {"target": "T1, EPHA6 (Homo sapiens, UniProt Q9UF33)", "T1 construct": "purchased Eurofins DiscoverX KINOMEscan (scanTK)", "T1 sequence (Q9UF33 23-1036)": "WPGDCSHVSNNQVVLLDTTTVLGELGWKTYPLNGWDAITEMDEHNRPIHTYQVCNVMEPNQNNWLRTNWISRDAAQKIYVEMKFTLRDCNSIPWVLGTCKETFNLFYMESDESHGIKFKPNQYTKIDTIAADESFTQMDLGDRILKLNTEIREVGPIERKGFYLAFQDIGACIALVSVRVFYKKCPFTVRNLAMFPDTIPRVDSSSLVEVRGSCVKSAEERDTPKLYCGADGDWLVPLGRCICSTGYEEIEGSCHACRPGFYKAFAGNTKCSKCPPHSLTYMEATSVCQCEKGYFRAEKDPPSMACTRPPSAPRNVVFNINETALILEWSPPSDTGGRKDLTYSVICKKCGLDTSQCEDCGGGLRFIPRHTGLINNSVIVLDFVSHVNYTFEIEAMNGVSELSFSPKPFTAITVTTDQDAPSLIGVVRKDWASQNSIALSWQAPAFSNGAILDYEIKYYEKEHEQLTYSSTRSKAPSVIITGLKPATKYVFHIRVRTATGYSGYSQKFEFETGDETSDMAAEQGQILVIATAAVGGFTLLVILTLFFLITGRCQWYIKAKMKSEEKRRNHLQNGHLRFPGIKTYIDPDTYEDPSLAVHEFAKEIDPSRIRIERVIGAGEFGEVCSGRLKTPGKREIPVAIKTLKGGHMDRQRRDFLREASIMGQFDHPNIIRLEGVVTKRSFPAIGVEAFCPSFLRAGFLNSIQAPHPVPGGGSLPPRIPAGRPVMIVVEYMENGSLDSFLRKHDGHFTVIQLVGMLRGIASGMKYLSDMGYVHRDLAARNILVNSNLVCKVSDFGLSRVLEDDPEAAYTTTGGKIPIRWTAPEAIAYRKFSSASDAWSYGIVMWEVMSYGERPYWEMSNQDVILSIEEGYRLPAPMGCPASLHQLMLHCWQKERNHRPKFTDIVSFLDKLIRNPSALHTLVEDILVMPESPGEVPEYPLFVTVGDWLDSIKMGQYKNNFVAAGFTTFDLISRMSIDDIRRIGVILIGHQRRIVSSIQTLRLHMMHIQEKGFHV", "assay": "KINOMEscan ScanTK", "assay_type": "binding"}, "ABL1-nonphosphorylated": {"target": "T2, ABL1-nonphosphorylated (Homo sapiens, UniProt P00519)", "T2 construct": "purchased Eurofins DiscoverX KINOMEscan (scanTK)", "assay": "KINOMEscan ScanTK", "assay_type": "binding"}, "FGFR3(G697C)": {"target": "T3, FGFR3(G697C) (Homo sapiens, UniProt P22607, G697C)", "T3 construct": "purchased Eurofins DiscoverX KINOMEscan (scanTK)", "T3 sequence (P22607 23-806 G697C)": "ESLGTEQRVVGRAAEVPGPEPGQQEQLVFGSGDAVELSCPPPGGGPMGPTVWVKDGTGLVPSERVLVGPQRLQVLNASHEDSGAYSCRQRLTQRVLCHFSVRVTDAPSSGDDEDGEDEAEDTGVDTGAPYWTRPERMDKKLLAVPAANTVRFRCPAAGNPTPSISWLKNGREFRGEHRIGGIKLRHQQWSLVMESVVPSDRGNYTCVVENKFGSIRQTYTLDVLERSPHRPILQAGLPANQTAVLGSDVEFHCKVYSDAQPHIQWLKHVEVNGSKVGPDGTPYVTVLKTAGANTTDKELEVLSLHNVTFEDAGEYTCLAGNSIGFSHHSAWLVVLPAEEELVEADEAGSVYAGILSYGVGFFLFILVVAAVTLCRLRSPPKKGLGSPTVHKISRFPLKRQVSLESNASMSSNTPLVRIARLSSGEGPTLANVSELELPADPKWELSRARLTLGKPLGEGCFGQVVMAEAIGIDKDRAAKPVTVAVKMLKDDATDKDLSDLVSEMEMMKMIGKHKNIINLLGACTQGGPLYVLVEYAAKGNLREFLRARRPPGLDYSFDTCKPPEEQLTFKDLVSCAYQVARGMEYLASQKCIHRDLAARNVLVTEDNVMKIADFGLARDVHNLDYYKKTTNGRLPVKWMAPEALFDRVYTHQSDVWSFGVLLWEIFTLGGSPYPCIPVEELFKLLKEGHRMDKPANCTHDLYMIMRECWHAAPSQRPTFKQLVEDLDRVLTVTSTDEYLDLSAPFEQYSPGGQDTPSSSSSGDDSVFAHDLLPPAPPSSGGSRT", "assay": "KINOMEscan ScanTK", "assay_type": "binding"}, "[1]": {"target": "T4, EGFR(L747-E749del, A750P) (Homo sapiens, UniProt P00533, A750P/DEL747-749)", "T4 construct": "purchased Eurofins DiscoverX KINOMEscan (scanTK)", "T4 sequence (P00533 with tags, fused parts or gaps DEL747-749/A750P limits assumed)": "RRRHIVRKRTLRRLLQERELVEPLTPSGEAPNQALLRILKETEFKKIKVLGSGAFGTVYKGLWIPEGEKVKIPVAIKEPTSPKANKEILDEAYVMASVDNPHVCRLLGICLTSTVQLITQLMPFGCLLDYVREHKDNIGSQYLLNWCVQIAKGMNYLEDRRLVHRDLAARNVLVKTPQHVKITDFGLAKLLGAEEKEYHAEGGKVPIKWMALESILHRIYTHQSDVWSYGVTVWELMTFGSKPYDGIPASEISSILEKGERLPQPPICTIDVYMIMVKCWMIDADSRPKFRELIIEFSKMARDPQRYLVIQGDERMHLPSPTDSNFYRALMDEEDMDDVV", "assay": "KINOMEscan ScanTK", "assay_type": "binding"}, "BRK": {"target": "T5, BRK (Homo sapiens, UniProt Q13882)", "T5 construct": "purchased Eurofins DiscoverX KINOMEscan (scanTK)", "assay": "KINOMEscan ScanTK", "assay_type": "binding"}, "ERBB4": {"target": "T6, ERBB4 (Homo sapiens, UniProt Q15303)", "T6 construct": "purchased Eurofins DiscoverX KINOMEscan (scanTK)", "assay": "KINOMEscan ScanTK", "assay_type": "binding"}, "wild-type BTK": {"target": "wild-type BTK (Homo sapiens, UniProt Q06187)", "sequence (Q06187 whole entry)": "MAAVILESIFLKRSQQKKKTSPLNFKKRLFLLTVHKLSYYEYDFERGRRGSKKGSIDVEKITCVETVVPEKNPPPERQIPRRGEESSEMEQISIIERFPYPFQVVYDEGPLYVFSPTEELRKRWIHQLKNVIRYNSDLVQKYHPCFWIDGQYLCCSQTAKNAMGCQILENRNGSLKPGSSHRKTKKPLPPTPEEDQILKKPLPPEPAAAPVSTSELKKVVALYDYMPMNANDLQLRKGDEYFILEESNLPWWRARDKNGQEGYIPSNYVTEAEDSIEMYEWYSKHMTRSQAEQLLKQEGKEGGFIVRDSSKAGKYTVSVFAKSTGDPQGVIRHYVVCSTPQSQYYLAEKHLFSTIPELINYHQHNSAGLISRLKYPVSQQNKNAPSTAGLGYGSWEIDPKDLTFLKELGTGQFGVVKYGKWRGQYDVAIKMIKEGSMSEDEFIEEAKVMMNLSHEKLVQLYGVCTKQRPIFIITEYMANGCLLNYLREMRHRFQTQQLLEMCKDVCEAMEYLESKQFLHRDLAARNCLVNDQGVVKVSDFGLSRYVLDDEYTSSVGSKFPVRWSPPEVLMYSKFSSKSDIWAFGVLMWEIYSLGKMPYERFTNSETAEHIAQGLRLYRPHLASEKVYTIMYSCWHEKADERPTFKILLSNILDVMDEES", "assay": "BTK in vitro activity assay (ADP-Glo, poly-Glu:Tyr phosphorylation, TCEP)"}, "ABL1-phosphorylated": {"target": "T7, ABL1-phosphorylated (Homo sapiens, UniProt P00519)", "T7 construct": "purchased Eurofins DiscoverX KINOMEscan (scanTK)", "assay": "KINOMEscan ScanTK", "assay_type": "binding"}, "CTK": {"target": "T8, CTK (Homo sapiens, UniProt P42679)", "T8 construct": "purchased Eurofins DiscoverX KINOMEscan (scanTK)", "T8 sequence (P42679 1-507)": "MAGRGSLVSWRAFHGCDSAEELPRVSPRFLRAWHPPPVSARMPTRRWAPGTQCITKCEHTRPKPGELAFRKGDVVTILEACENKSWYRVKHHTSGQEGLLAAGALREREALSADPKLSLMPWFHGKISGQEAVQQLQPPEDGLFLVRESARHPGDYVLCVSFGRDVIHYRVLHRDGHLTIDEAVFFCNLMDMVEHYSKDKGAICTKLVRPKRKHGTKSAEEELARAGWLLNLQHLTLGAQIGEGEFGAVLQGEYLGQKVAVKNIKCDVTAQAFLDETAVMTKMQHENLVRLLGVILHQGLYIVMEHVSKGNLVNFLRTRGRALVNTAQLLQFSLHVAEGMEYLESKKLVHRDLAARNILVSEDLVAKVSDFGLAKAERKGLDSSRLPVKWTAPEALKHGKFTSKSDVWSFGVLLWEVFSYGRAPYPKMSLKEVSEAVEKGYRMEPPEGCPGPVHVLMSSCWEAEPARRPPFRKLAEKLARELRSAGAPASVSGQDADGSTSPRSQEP", "assay": "KINOMEscan ScanTK", "assay_type": "binding"}, "TRKC": {"target": "T9, TRKC (Homo sapiens, UniProt Q16288)", "T9 construct": "purchased Eurofins DiscoverX KINOMEscan (scanTK)", "T9 sequence (Q16288 32-839)": "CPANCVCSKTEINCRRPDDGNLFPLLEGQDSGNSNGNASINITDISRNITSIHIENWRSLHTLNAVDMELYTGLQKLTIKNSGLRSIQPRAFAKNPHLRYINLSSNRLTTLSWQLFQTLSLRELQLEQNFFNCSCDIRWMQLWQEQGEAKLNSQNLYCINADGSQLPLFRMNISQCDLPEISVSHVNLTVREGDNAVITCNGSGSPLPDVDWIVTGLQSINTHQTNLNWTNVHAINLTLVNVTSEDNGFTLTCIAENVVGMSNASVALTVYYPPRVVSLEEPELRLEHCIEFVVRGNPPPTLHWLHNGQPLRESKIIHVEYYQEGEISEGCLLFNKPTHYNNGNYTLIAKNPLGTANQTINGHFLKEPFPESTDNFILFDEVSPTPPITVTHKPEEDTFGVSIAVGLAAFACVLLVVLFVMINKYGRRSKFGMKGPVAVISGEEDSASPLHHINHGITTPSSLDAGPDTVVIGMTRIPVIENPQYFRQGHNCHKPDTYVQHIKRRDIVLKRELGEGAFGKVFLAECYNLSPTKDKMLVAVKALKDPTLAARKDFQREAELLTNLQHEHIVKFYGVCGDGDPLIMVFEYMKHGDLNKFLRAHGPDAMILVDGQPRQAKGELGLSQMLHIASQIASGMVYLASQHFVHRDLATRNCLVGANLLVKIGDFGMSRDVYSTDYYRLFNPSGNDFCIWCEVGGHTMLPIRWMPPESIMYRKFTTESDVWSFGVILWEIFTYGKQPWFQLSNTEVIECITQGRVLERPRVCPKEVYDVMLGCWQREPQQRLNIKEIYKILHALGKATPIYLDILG", "assay": "KINOMEscan ScanTK", "assay_type": "binding", "settings": "TRKC"}, "[2]": {"target": "T10, ABL1(F317L)-phosphorylated (Homo sapiens, UniProt P00519, F317L)", "T10 construct": "purchased Eurofins DiscoverX KINOMEscan (scanTK)", "T10 sequence (P00519 whole entry F317L)": "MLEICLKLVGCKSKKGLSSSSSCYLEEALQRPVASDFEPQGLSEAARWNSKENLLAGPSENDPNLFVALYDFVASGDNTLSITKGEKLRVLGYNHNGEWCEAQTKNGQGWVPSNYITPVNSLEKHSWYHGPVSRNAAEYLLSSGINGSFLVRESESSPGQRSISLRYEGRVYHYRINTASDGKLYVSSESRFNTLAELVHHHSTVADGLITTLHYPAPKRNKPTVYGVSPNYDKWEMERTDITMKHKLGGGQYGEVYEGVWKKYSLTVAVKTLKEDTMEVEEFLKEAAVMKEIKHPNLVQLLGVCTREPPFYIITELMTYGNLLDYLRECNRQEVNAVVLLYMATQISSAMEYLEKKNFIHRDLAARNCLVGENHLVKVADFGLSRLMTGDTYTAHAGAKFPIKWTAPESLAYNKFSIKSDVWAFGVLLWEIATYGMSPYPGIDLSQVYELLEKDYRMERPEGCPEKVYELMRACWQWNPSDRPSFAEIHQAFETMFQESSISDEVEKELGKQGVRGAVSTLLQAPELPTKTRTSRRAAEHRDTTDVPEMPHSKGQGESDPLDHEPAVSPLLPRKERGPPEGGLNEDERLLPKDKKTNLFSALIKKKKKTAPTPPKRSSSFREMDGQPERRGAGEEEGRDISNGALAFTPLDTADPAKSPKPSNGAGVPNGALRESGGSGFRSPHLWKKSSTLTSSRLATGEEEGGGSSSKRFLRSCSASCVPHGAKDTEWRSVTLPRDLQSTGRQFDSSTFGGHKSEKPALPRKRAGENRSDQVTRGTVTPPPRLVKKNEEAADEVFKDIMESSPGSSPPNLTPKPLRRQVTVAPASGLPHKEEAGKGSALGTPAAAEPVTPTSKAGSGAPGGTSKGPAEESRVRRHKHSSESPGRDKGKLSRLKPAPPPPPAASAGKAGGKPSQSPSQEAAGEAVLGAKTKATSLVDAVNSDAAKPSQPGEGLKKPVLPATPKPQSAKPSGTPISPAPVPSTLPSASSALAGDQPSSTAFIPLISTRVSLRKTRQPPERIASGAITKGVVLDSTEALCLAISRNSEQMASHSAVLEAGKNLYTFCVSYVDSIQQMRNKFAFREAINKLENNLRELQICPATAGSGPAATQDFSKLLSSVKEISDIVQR", "assay": "KINOMEscan ScanTK", "assay_type": "binding"}, "ABL2": {"target": "T11, ABL2 (Homo sapiens, UniProt P42684)", "T11 construct": "purchased Eurofins DiscoverX KINOMEscan (scanTK)", "assay": "KINOMEscan ScanTK", "assay_type": "binding"}, "MET(Y1235D)": {"target": "T12, MET(Y1235D) (Homo sapiens, UniProt P08581, Y1235D)", "T12 construct": "purchased Eurofins DiscoverX KINOMEscan (scanTK)", "assay": "KINOMEscan ScanTK", "assay_type": "binding"}, "INSRR": {"target": "T13, INSRR (Homo sapiens, UniProt P14616)", "T13 construct": "purchased Eurofins DiscoverX KINOMEscan (scanTK)", "T13 sequence (P14616 27-1297)": "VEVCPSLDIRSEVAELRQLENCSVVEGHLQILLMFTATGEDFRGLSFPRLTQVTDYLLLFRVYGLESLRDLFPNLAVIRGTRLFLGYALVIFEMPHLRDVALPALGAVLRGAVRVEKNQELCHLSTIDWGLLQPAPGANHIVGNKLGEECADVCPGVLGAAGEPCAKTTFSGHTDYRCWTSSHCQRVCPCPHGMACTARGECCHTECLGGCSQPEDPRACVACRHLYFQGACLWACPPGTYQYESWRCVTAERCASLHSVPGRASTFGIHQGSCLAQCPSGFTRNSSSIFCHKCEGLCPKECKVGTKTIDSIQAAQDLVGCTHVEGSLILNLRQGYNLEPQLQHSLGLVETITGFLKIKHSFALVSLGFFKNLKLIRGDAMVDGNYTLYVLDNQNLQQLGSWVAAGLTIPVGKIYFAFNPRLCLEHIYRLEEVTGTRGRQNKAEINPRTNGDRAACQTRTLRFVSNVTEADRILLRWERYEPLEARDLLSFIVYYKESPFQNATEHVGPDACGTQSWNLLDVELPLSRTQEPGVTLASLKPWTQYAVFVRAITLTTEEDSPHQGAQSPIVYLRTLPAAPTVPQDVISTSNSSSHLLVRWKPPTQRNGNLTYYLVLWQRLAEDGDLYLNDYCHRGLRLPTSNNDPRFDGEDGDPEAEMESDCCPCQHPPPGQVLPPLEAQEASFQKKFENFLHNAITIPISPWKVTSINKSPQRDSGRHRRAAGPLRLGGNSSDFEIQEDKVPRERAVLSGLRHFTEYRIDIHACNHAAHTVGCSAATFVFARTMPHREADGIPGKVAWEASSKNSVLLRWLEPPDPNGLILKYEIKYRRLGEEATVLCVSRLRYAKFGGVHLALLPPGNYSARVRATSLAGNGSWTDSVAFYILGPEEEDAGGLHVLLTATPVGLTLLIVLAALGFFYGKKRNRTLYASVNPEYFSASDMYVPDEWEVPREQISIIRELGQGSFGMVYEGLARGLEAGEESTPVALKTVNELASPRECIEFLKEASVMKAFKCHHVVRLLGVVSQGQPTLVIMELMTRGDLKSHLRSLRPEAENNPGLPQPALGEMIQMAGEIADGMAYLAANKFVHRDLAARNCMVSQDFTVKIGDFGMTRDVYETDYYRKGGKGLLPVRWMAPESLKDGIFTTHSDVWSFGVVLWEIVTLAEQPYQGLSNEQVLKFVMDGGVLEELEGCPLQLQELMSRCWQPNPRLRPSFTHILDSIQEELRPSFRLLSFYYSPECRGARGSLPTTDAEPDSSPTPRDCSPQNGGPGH", "assay": "KINOMEscan ScanTK", "assay_type": "binding"}, "PDGFRB": {"target": "T14, PDGFRB (Homo sapiens, UniProt P09619)", "T14 construct": "purchased Eurofins DiscoverX KINOMEscan (scanTK)", "assay": "KINOMEscan ScanTK", "assay_type": "binding"}}, "note": "Where two headings read alike, the source gives them in different places."}
{"smiles": "CNC(=O)c1cnc(S(C)(=O)=O)nc1N1CCCC(n2nc(-c3ccc(Oc4ccccc4)cc3)c3c(N)ncnc32)C1", "note": "(stereo not drawn) [Compound 8d, 4-(3-(4-Amino-3-(4-phenoxyphenyl)-1H-pyrazolo[3,4-d]pyrimidin-1-yl)piperidin-1-yl)-N-methyl-2-(methylsulfonyl)pyrimidine-5-carboxamide]", "values": [{"measurement": "difference in %Control from compound Ib at 1 µM", "setting": "EPHA6; @1000nM", "result": 20, "unit": "%"}, {"measurement": "remaining binding at 1 µM", "setting": "EPHA6; @1000nM, read-out: %Control", "result": 97, "unit": "%"}, {"measurement": "remaining binding at 1 µM", "setting": "EPHA6; read-out: %Control @1000nM", "result": 97, "unit": "%"}, {"measurement": "difference in %Control from reference compound Ib at 1 µM", "setting": "ABL1-nonphosphorylated; @1000nM", "result": 24.5, "unit": "%"}, {"measurement": "remaining binding at 1 µM", "setting": "ABL1-nonphosphorylated; @1000nM, read-out: %Control", "result": 33, "unit": "%"}, {"measurement": "remaining binding at 1 µM", "setting": "ABL1-nonphosphorylated; read-out: %Control @1000nM", "result": 33, "unit": "%"}, {"measurement": "difference in %Control versus compound Ib at 1 µM", "setting": "FGFR3(G697C); @1000nM", "result": 47, "unit": "%"}, {"measurement": "remaining binding at 1 µM", "setting": "FGFR3(G697C); @1000nM, read-out: %Control", "result": 87, "unit": "%"}, {"measurement": "remaining binding at 1 µM", "setting": "FGFR3(G697C); read-out: %Control @1000nM", "result": 87, "unit": "%"}, {"measurement": "difference in %Control versus compound Ib at 1 µM", "setting": "[1]; @1000nM", "result": 48.9, "unit": "%"}, {"measurement": "remaining binding at 1 µM", "setting": "[1]; @1000nM, read-out: %Control", "result": 52, "unit": "%"}, {"measurement": "remaining binding at 1 µM", "setting": "[1]; read-out: %Control @1000nM", "result": 52, "unit": "%"}, {"measurement": "difference in %Control relative to compound Ib at 1 µM", "setting": "BRK; @1000nM", "result": 13.7, "unit": "%"}, {"measurement": "remaining binding at 1 µM", "setting": "BRK; @1000nM, read-out: %Control", "result": 15, "unit": "%"}, {"measurement": "remaining binding at 1 µM", "setting": "BRK; read-out: %Control @1000nM", "result": 15, "unit": "%"}, {"measurement": "difference in %Control versus compound Ib at 1 µM", "setting": "ERBB4; @1000nM", "result": 0.05, "unit": "%"}, {"measurement": "remaining binding at 1 µM", "setting": "ERBB4; @1000nM, read-out: %Control", "result": 0.1, "unit": "%"}, {"measurement": "remaining binding at 1 µM", "setting": "ERBB4; read-out: %Control @1000nM", "result": 0.1, "unit": "%"}, {"measurement": "IC50", "setting": "wild-type BTK", "result": "28 ± 6", "unit": "nM"}, {"measurement": "remaining activity at 0.1 µM", "setting": "wild-type BTK; read-out: Remaining BTK activity (%)", "result": "2 ± 0.5", "unit": "%"}, {"measurement": "difference in %Control from compound Ib at 1 µM", "setting": "ABL1-phosphorylated; @1000nM", "result": -5, "unit": "%"}, {"measurement": "remaining binding at 1 µM", "setting": "ABL1-phosphorylated; @1000nM, read-out: %Control", "result": 55, "unit": "%"}, {"measurement": "remaining binding at 1 µM", "setting": "ABL1-phosphorylated; read-out: %Control @1000nM", "result": 55, "unit": "%"}, {"measurement": "difference in %Control versus compound Ib at 1 µM", "setting": "CTK; @1000nM", "result": -3, "unit": "%"}, {"measurement": "remaining binding at 1 µM", "setting": "CTK; @1000nM, read-out: %Control", "result": 77, "unit": "%"}, {"measurement": "remaining binding at 1 µM", "setting": "CTK; read-out: %Control @1000nM", "result": 77, "unit": "%"}, {"measurement": "difference in %Control versus compound Ib at 1 µM", "setting": "TRKC; @1000nM", "result": -3, "unit": "%"}, {"measurement": "remaining binding at 1 µM", "setting": "TRKC; @1000nM, read-out: %Control", "result": 92, "unit": "%"}, {"measurement": "remaining binding at 1 µM", "setting": "TRKC; read-out: %Control @1000nM", "result": 92, "unit": "%"}, {"measurement": "difference in %Control from compound Ib at 1 µM", "setting": "[2]; @1000nM", "result": 39, "unit": "%"}, {"measurement": "remaining binding at 1 µM", "setting": "[2]; @1000nM, read-out: %Control", "result": 76, "unit": "%"}, {"measurement": "remaining binding at 1 µM", "setting": "[2]; read-out: %Control @1000nM", "result": 76, "unit": "%"}, {"measurement": "difference in %Control from reference compound Ib at 1 µM", "setting": "ABL2; @1000nM", "result": 48, "unit": "%"}, {"measurement": "remaining binding at 1 µM", "setting": "ABL2; @1000nM, read-out: %Control", "result": 89, "unit": "%"}, {"measurement": "remaining binding at 1 µM", "setting": "ABL2; read-out: %Control @1000nM", "result": 89, "unit": "%"}, {"measurement": "remaining binding at 1 µM", "setting": "MET(Y1235D); @1000nM, read-out: %Control", "result": 91, "unit": "%"}, {"measurement": "remaining binding at 1 µM", "setting": "MET(Y1235D); read-out: %Control @1000nM", "result": 91, "unit": "%"}, {"measurement": "difference in %Control versus compound Ib at 1 µM", "setting": "INSRR; @1000nM", "result": -8, "unit": "%"}, {"measurement": "remaining binding at 1 µM", "setting": "INSRR; @1000nM, read-out: %Control", "result": 88, "unit": "%"}, {"measurement": "remaining binding at 1 µM", "setting": "INSRR; read-out: %Control @1000nM", "result": 88, "unit": "%"}, {"measurement": "remaining binding at 1 µM", "setting": "PDGFRB; @1000nM, read-out: %Control", "result": 77, "unit": "%"}, {"measurement": "remaining binding at 1 µM", "setting": "PDGFRB; read-out: %Control @1000nM", "result": 77, "unit": "%"}]}
